Assay results reported in patent publication US10752588B2 (The Broad Institute, Inc., priority 2014, dated 2020).
Where two headings read alike, the source gives them in different places.

What was measured:
human D2R/β-arrestin [1] = molecular target: T1, human D2R/β-arrestin (Homo sapiens (Human), UniProt P14416); experiment: β-Arrestin agonist assay (PathHunter); type: cell-based; settings: CHO-K1 cell line expressing human D2R/β-arrestin
How it was run: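 After compound incubation, detection reagent (Buffer:Emerald II:Galactor-Star, 19:5:1) added and luminescence or fluorescence read.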

human D2R/β-arrestin [2] = molecular target: T1, human D2R/β-arrestin; experiment: cell-based; settings: cAMP Antagonist
human D2R/β-arrestin [3] = molecular target: T1, human D2R/β-arrestin; experiment: cell-based; settings: β-arrestin Antagonist, CHO-K1 cell line expressing human D2R/β-arrestin; quinpirole used as agonist
human D2R/β-arrestin [4] = molecular target: T1, human D2R/β-arrestin; experiment: Gi/cAMP agonist assay (Lance Ultra cAMP, Forskolin); type: cell-based; settings: CHO-K1 cell line expressing human D2R/β-arrestin
How it was run: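 Cells were plated and incubated before compounds were pin-transferred and incubated for 10 min at 37 °C. Forskolin was then added to stimulate cAMP. cAMP was detected by Lance Ultra TR-FRET using Eu-cAMP tracer and ULight-anti-cAMP antibody.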

[5] = Microsomal stability, mouse
human D2R/β-arrestin [6] = molecular target: T1, human D2R/β-arrestin; settings: read-out: β-arrestin Antagonist
human D2R/β-arrestin [7] = molecular target: T1, human D2R/β-arrestin; settings: read-out: cAMP Antagonist; CHO-K1 cell line expressing human D2R/β-arrestin; quinpirole used as agonist
[8] = CHO-K1 cell line expressing human D2R/β-arrestin, quinpirole used as agonist

T1 sequence (P14416 whole entry): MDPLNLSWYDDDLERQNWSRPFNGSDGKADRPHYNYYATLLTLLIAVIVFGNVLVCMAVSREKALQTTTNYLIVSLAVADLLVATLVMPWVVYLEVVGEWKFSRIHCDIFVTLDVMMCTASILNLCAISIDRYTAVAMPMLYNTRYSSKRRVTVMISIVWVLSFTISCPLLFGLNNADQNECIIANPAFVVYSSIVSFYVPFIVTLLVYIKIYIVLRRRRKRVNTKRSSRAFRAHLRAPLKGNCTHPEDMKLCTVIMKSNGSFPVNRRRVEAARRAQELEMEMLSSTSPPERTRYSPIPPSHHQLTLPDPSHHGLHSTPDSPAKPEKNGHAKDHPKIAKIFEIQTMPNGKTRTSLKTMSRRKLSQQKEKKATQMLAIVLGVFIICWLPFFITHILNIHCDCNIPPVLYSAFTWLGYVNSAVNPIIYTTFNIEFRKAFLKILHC

SMILES | EC50 (human D2R/β-arrestin [1]) | IC50 (human D2R/β-arrestin [2]; [8]) | IC50 (human D2R/β-arrestin [3]) | EC50 (human D2R/β-arrestin [4]) | Microsomal Stability: % remaining after 60 minutes [5] | IC50 (human D2R/β-arrestin [6]; [8]) | IC50 (human D2R/β-arrestin [7]) | IC50 (human D2R/β-arrestin [2]) | IC50 (human D2R/β-arrestin [6])
O=C(NC(c1ccc2c(c1)OC(F)(F)O2)c1ccccn1)C1CCN(CCOc2ccc(F)cc2F)CC1 (single isomer, unassigned) [Compound 130b, N-((2,2-difluorobenzo[d][1,3]dioxol-5-yl)(pyridin-2-yl)methyl)-1-(2-(2,4-difluorophenoxy)ethyl)piperidine-4-carboxamide] | 100 to 1000 nM | > 30000 nM |  | < 100 nM |  | 1000 to 10000 nM |  |  | 
O=C(NC(c1cccc(OC(F)(F)F)c1)c1ccccn1)C1CCN(CCOc2ccccc2F)CC1 (stereo not drawn) [Compound 93, 1-(2-(2-fluorophenoxy)ethyl)-N-(pyridin-2-yl(3-(trifluoromethoxy)phenyl)methyl)piperidine-4-carboxamide] | > 30000 nM | > 30000 nM | 100 to 1000 nM | < 100 nM | m12% |  |  |  | 
COc1cccc(C(c2ccccn2)N(C)CC2CCN(CCOc3ccccc3F)CC2)c1 (single isomer, unassigned) [Compound 77b, N-((1-(2-(2-fluorophenoxy)ethyl)piperidin-4-yl)methyl)-1-(3-methoxyphenyl)-N-methyl-1-(pyridin-2-yl)methanamine] | > 30000 nM |  | 1000 to 10000 nM | > 30000 nM |  |  | 100 to 1000 nM |  | 
O=C(NC(c1cccc(OC(F)(F)F)c1)c1ccccn1)C1CCN(CCOc2ccccc2F)CC1 (single isomer, unassigned) [Compound 93b, 1-(2-(2-fluorophenoxy)ethyl)-N-(pyridin-2-yl(3-(trifluoromethoxy)phenyl)methyl)piperidine-4-carboxamide] | > 30000 nM | > 30000 nM |  | 100 to 1000 nM | m19% | 1000 to 10000 nM |  |  | 
CC1(CNC(c2ccc(F)cc2)c2ccccn2)CCN(CCOc2ccccc2C(F)(F)F)CC1 (single isomer, unassigned) [Compound 101b, 1-(4-fluorophenyl)-N-((4-methyl-1-(2-(2-(trifluoromethyl)phenoxy)ethyl)piperidin-4-yl)methyl)-1-(pyridin-2-yl)methanamine] | > 30000 nM |  |  |  |  | 100 to 1000 nM |  |  | 
CN(CC1CCN(CCOc2ccc(C(F)(F)F)cc2)CC1)C(c1ccc(Cl)cc1)c1ccccn1 (stereo not drawn) [Compound 137, 1-(4-chlorophenyl)-N-methyl-1-(pyridin-2-yl)-N-((1-(2-(4-(trifluoromethyl)phenoxy)ethyl)piperidin-4-yl)methyl)methanamine] | > 30000 nM | 1000 to 10000 nM | 1000 to 10000 nM | > 30000 nM | m1% |  |  |  | 
CN(CC1CCN(CCOc2ccccc2F)CC1)C(c1ccc2c(c1)OCO2)c1ccccn1 (single isomer, unassigned) [Compound 138b, 1-(benzo[d][1,3]dioxol-5-yl)-N-((1-(2-(2-fluorophenoxy)ethyl)piperidin-4-yl)methyl)-N-methyl-1-(pyridin-2-yl)methanamine] | > 30000 nM | < 100 nM |  | < 100 nM |  | 100 to 1000 nM |  |  | 
COc1cccc(C(NC(=O)C2CCN(CCOc3ccccc3)CC2)c2ccccc2)c1 (stereo not drawn) [Compound 46] | > 30000 nM |  |  |  |  | 1000 to 10000 nM |  |  | 
CC(C)N(CC1CCN(CCOc2ccc(F)cc2)CC1)C(c1ccc(Cl)cc1)c1ccccn1 (stereo not drawn) [Compound 135, N-((4-chlorophenyl)(pyridin-2-yl)methyl)-N-((1-(2-(4-fluorophenoxy)ethyl)piperidin-4-yl)methyl)propan-2-amine] | > 30000 nM | 100 to 1000 nM | 1000 to 10000 nM | > 30000 nM | m2% |  |  |  | 
O=C(NC(c1ccc(Cl)cc1)c1ccncc1F)C1CCN(CCOc2ccccc2F)CC1 (single isomer, unassigned) [Compound 91b, N-((4-chlorophenyl)(3-fluoropyridin-4-yl)methyl)-1-(2-(2-fluorophenoxy)ethyl)piperidine-4-carboxamide] | > 30000 nM | 100 to 1000 nM | 100 to 1000 nM | > 30000 nM | m1% |  |  |  | 
CC(C)N(CC1CCN(CCOc2ccccc2)CC1)C(c1ccc(Cl)cc1)c1ccccn1 (single isomer, unassigned) [Compound 103b, N-((4-chlorophenyl)(pyridin-2-yl)methyl)-N-((1-(2-phenoxyethyl)piperidin-4-yl)methyl)propan-2-amine] | 100 to 1000 nM |  |  | < 100 nM |  |  |  | > 30000 nM | 100 to 1000 nM
O=C(NC(c1ccc(Cl)cc1)c1ccccc1F)C1CCN(CCOc2ccccc2F)CC1 (stereo not drawn) [Compound 96, N-((4-chlorophenyl)(2-fluorophenyl)methyl)-1-(2-(2-fluorophenoxy)ethyl) piperidine-4-carboxamide] | > 30000 nM | 100 to 1000 nM | 100 to 1000 nM | 100 to 1000 nM | m26% |  |  |  | 
O=C(NC(c1ccc(Cl)cc1)c1ccccn1)C1CCN(CCn2ccccc2=O)CC1 (stereo not drawn) [Compound 9, N((4-chlorophenyl)(pyridin-2-yl)methyl)-1-(2-(2-oxopyridin-1(2H)-yl)ethyl) piperidine-4-carboxamide] | > 30000 nM | 1000 to 10000 nM | 1000 to 10000 nM | > 30000 nM |  |  |  |  | 
COc1cccc(C(NC(=O)C2CCN(CCOc3ccc(F)cc3F)CC2)c2ccccn2)c1 (single isomer, unassigned) [Compound 145b, 1-(2-(2,4-difluorophenoxy)ethyl)-N-((3-methoxyphenyl)(pyridin-2-yl)methyl)piperidine-4-carboxamide] | > 30000 nM | 100 to 1000 nM | 1000 to 10000 nM | > 30000 nM |  |  |  |  | 
O=C(NC(c1ccc(F)cc1)c1ccccc1F)C1CCN(CCOc2ccccc2Cl)CC1 (stereo not drawn) [Compound 85, 1-(2-(2-chlorophenoxy)ethyl)-N-((2-fluorophenyl)(4-fluorophenyl)methyl)piperidine-4-carboxamide] | > 30000 nM | < 100 nM | < 100 nM | > 30000 nM |  |  |  |  | 
O=C(NC(c1ccc(Cl)cc1)c1ccc(F)cn1)C1CCN(CCOc2ccccc2F)CC1 (single isomer, unassigned) [Compound 92a, N-((4-chlorophenyl)(5-fluoropyridin-2-yl)methyl)-1-(2-(2-fluorophenoxy)ethyl)piperidine-4-carboxamide] | > 30000 nM | 100 to 1000 nM | 100 to 1000 nM | 100 to 1000 nM |  |  |  |  | 

More lines, main results first:

EC50 (human D2R/β-arrestin [1]) | IC50 (human D2R/β-arrestin [2]; [8]) | IC50 (human D2R/β-arrestin [3]) | EC50 (human D2R/β-arrestin [4]) | Microsomal Stability: % remaining after 60 minutes [5] | IC50 (human D2R/β-arrestin [6]; [8]) | IC50 (human D2R/β-arrestin [7]) | SMILES | IC50 (human D2R/β-arrestin [2]) | IC50 (human D2R/β-arrestin [6])
100 to 1000 nM | > 30000 nM | 100 to 1000 nM | < 100 nM | m1% |  |  | Clc1ccc(C(c2ccccn2)N2CCC3(CCN(CCOc4ccccc4)CC3)C2)cc1 (single isomer, unassigned) [Compound 105a, 2-((4-chlorophenyl)(pyridin-2-yl)methyl)-8-(2-phenoxyethyl)-2,8-diazaspiro[4.5]decane] |  | 
> 30000 nM | > 30000 nM | 1000 to 10000 nM | 100 to 1000 nM | m0% |  |  | CN(C(=O)C1CCN(CCOc2ccccc2)CC1)C(c1ccc(Cl)cc1)c1ccccn1 (stereo not drawn) [Compound 51, N((4-chlorophenyl)(pyridin-2-yl)methyl)-N-methyl-1-(2-phenoxyethyl) piperidine-4-carboxamide] |  | 
> 30000 nM | 1000 to 10000 nM |  | 1000 to 10000 nM |  | 1000 to 10000 nM |  | COc1cccc(C(c2ccccn2)N(C)CC2CCN(CCOc3ccccc3)CC2)c1 (single isomer, unassigned) [Compound 76b, 1-(3-methoxyphenyl)-N-methyl-N-((1-(2-phenoxyethyl)piperidin-4-yl)methyl)-1-(pyridin-2-yl)methanamine] |  | 
> 30000 nM | > 30000 nM | 1000 to 10000 nM | 100 to 1000 nM | m7% |  |  | Clc1ccc(C(OCC2CCN(CCOc3ccccc3)CC2)c2ccccn2)cc1 (stereo not drawn) [Compound 99, 2-((4-chlorophenyl)((1-(2-phenoxyethyl)piperidin-4-yl)methoxy)methyl)pyridine] |  | 
> 30000 nM | > 30000 nM | 10000 to 30000 nM | 1000 to 10000 nM | m45% |  |  | Clc1ccc(C(c2ccccn2)N2CC3(CCN(CCOc4ccccc4)CC3)C2)cc1 (stereo not drawn) [Compound 104, 2-((4-chlorophenyl)(pyridin-2-yl)methyl)-7-(2-phenoxyethyl)-2,7-diazaspiro[3.5]nonane] |  | 
> 30000 nM | 100 to 1000 nM | 100 to 1000 nM | 100 to 1000 nM | m3% |  |  | CC(C1CCN(CCOc2ccccc2)CC1)N(C)C(c1ccc(Cl)cc1)c1ccccn1 (single isomer, unassigned) [Compound 97b, N-((4-chlorophenyl)(pyridin-2-yl)methyl)-N-methyl-1-(1-(2-phenoxyethyl)piperidin-4-yl)ethan-1-amine] |  | 
1000 to 10000 nM | > 30000 nM |  | < 100 nM |  | 1000 to 10000 nM |  | O=C(NC(c1ccc(Cl)cc1)c1ccccn1)C1CCN(CCOc2cccc(Cl)c2)CC1 (single isomer, unassigned) [Compound 1b, 1-(2-(3-chlorophenoxy)ethyl)-N-((4-chlorophenyl)(pyridin-2-yl)methyl)piperidine-4-carboxamide] |  | 
